{
  "source": "patent US8969297B2",
  "about": "“Methods and compositions for the induction of hypothermia” (priority 2009, dated 2015)",
  "key": {"[1]": {"test_system": "asphyxial cardiac arrest rat model", "assay": "Neurological deficit score (NDS) in rat model of asphyxial cardiac arrest", "type": "in vivo", "settings": "normothermic conditions; for NDS 72 hours after resuscitation: ethanol alone or vasopressin alone", "method": "The outcome model of asphyxial cardiac arrest in rats was used for these studies and has been described previously (Katz et al. (1995) J Cereb Blood Flow Metab 15:1032-1039). Briefly, rats were anesthetized with 4% isoflurane, intubated and mechanically ventilated, anesthesia was titrated and vessel catheters inserted. Cardiac arrest was induced by apneic asphyxia with chemical paralysis (vecuronium 2 mg/kg) and discontinuation of ventilation. After 10 minutes of asphyxial cardiac arrest, rats were resuscitated with mechanical ventilation, 100% O2, epinephrine (0.005 mg/kg) and chest compressions. Rats were extubated two hours after resuscitation and placed in a humidity and temperature controlled incubator. Rats were sacrificed by an overdose (5%) of inhaled isoflurane and then perfusion fixed with 100 ml of 4% paraformaldehyde at a perfusion pressure of 100 mmHg. Multiple coronal sections (10 μm thickness) of the brain (Paxinos et al. (1995) J Neurosci Methods 13:139-143) were cryosectioned for future immunostaining and histological evaluation. […]\nThe total ND score is composed of 5 components as outlined below. A normal rat has a ND score of 0% and a brain-dead rat has an ND score of 100% (Katz et al. (1995) J Cereb Blood Flow Metab 15:1032-1039).\n(§1) Five minutes after the return of spontaneous circulation (ROSC), rats were administered 15 ml/kg of iced normal (0.9%) saline (5° C.) (forced hypothermia) or half of the indicated treatment (at room temperature, 21° C.) intravenously over 20 minutes. The first infusion was followed immediately by a second 20-minutee infusion (15 ml/kg) with iced saline (5° C.) for the forced hypothermia group or the second half of the indicated treatment (at 21° C.).\n(§2) The rat outcome model of asphyxial cardiac arrest was used to test each of the components of the cocktail to determine the effects of the components on NDS and performance in the Morris Water Maze. Rats undergoing forced hypothermia and rats maintained under normothermic conditions (with 0.5 U/kg vasopressin administered) served as controls. Raw survival and NDS data is shown in Table 1 and Table 2 provides a summary of the survival and NDS data."}, "[2]": {"test_system": "asphyxial cardiac arrest rat model", "assay": "Survival in rat outcome model of asphyxial cardiac arrest", "type": "in vivo", "settings": "for effect on mortality / neurological deficit score: compound alone under normothermic conditions; for Survival days: individual rats", "method": "The outcome model of asphyxial cardiac arrest in rats was used for these studies and has been described previously (Katz et al. (1995) J Cereb Blood Flow Metab 15:1032-1039). Briefly, rats were anesthetized with 4% isoflurane, intubated and mechanically ventilated, anesthesia was titrated and vessel catheters inserted. Cardiac arrest was induced by apneic asphyxia with chemical paralysis (vecuronium 2 mg/kg) and discontinuation of ventilation. After 10 minutes of asphyxial cardiac arrest, rats were resuscitated with mechanical ventilation, 100% O2, epinephrine (0.005 mg/kg) and chest compressions. Rats were extubated two hours after resuscitation and placed in a humidity and temperature controlled incubator. Rats were sacrificed by an overdose (5%) of inhaled isoflurane and then perfusion fixed with 100 ml of 4% paraformaldehyde at a perfusion pressure of 100 mmHg. Multiple coronal sections (10 μm thickness) of the brain (Paxinos et al. (1995) J Neurosci Methods 13:139-143) were cryosectioned for future immunostaining and histological evaluation.\nas §1, with “Rats underwent ten minutes of asphyxial cardiac arrest and resuscitation. Five” for “Five”\nas §2, with “controls.” for “controls. Raw survival and NDS data is shown in Table 1 and Table 2 provides a summary of the survival and NDS data.”"}, "[3]": {"settings": "Gable (2004); cited from earlier work"}, "rats": {"test_system": "rats", "settings": "ethanol alone", "method": "as §1, with “Rats underwent ten minutes of asphyxial cardiac arrest and resuscitation. Five” for “Five”"}, "[4]": {"settings": "0.005 mg/kg, normothermic conditions"}, "[5]": {"settings": "20 mcg/kg, normothermic conditions"}, "[6]": {"settings": "0.25 U/kg, normothermic conditions"}, "[7]": {"settings": "1 mg/kg, normothermic conditions"}, "[8]": {"settings": "0.8 g/kg, normothermic conditions"}},
  "data": [
    {"molecule": "NC(=O)CC[C@@H]1NC(=O)[C@H](Cc2ccccc2)NC(=O)[C@H](Cc2ccc(O)cc2)NC(=O)[C@@H](N)CSSC[C@@H](C(=O)N2CCC[C@H]2C(=O)N[C@@H](CCCN=C(N)N)C(=O)NCC(N)=O)NC(=O)[C@H](CC(N)=O)NC1=O", "note": "[Vasopressin]", "values": [
      {"measurement": "NDS day 3, median neurological deficit score", "setting": "[1]; 0.5 U/kg", "result": "(36)"},
      {"measurement": "NDS day 7", "setting": "[1]; 0.5 U/kg, individual rats", "result": "NA, NA, 22"},
      {"measurement": "NDS day 7", "setting": "[1]; 0.5 U/kg, single surviving rat (summary table)", "result": "NA, NA, 22"},
      {"measurement": "NDS day 3, median neurological deficit score", "setting": "[1]; 0.75 U/kg", "result": "(30)"},
      {"measurement": "NDS 72 hours after resuscitation", "setting": "[1]", "result": 30},
      {"measurement": "neurological deficits 72 hours after resuscitation", "setting": "[1]; vasopressin alone", "result": "reduced neurological deficits"},
      {"measurement": "Average Survival days", "setting": "[2]; 0.5 U/kg, normothermic conditions", "result": 5, "unit": "days"},
      {"measurement": "Average Survival days", "setting": "[2]; 0.75 U/kg, normothermic conditions", "result": 3, "unit": "days"},
      {"measurement": "effect on mortality / neurological deficit score", "setting": "[2]", "result": "minimal effect on mortality or the neurological deficit score"},
      {"measurement": "enhancement of survival", "setting": "[2]; vasopressin alone, normothermic conditions", "result": "approximately 3 fold"}
    ]},
    {"molecule": "CNC[C@H](O)c1ccc(O)c(O)c1", "note": "[Epinephrine, epinephrine]", "values": [
      {"measurement": "Average Survival days", "setting": "[2]; [4]", "result": 1, "unit": "days"},
      {"measurement": "Survival days", "setting": "[2]; [4]", "result": 1, "unit": "days"},
      {"measurement": "Average Survival days", "setting": "[2]; 0.01 mg/kg, normothermic conditions", "result": 1, "unit": "days"}
    ]},
    {"molecule": "Cc1[nH]c(=O)c(C#N)cc1-c1ccncc1", "note": "[Milrinone]", "values": [
      {"measurement": "Average Survival days", "setting": "[2]; 0.3 mg/kg, normothermic conditions", "result": 1, "unit": "days"}
    ]},
    {"molecule": "NCCc1ccc(O)c(O)c1", "note": "[Dopamine, dopamine]", "values": [
      {"measurement": "Average Survival days", "setting": "[2]; [5]", "result": 1, "unit": "days"},
      {"measurement": "Survival days", "setting": "[2]; [5]", "result": 1, "unit": "days"}
    ]},
    {"molecule": "Insulin: antihyperglycemic compound", "values": [
      {"measurement": "Average Survival days", "setting": "[2]; [6]", "result": 2, "unit": "days"},
      {"measurement": "Survival days", "setting": "[2]; [6]", "result": 2, "unit": "days"}
    ]},
    {"molecule": "CCN(CC)CC(=O)Nc1c(C)cccc1C", "note": "[Lidocaine, 2-(diethylamino)-N-(2,6-dimethylphenyl)acetamide]", "values": [
      {"measurement": "Average Survival days", "setting": "[2]; [7]", "result": 1, "unit": "days"},
      {"measurement": "Survival days", "setting": "[2]; [7]", "result": 1, "unit": "days"}
    ]},
    {"molecule": "CCO", "note": "[Ethanol, ethanol]", "values": [
      {"measurement": "NDS day 3, median neurological deficit score", "setting": "[1]; 1.5 g/kg", "result": "NA, (36.5)"},
      {"measurement": "NDS day 3, median neurological deficit score", "setting": "[1]; 2 g/kg", "result": "(31)"},
      {"measurement": "neurological deficit score at 72 hours after resuscitation", "setting": "[1]; ethanol alone 1 g/kg, 1.5 g/kg and 2 g/kg", "result": "reduced the neurological deficit score"},
      {"measurement": "NDS 72 hours after resuscitation", "setting": "[1]", "result": 31},
      {"measurement": "acute ingestion considered toxic", "setting": "[3]", "result": "above 10 g/kg"},
      {"measurement": "minimum dose able to reliably induce hypothermia", "setting": "rats", "result": "about 0.75 g/kg"},
      {"measurement": "dose at which the hypothermic effect plateaus", "setting": "rats; higher doses do not further lower the temperature", "result": 3000, "unit": "mg/kg"},
      {"measurement": "temperature reached", "setting": "rats; maintained during infusion", "result": "about 33 °C"},
      {"measurement": "Average Survival days", "setting": "[2]; 0.5 g/kg, normothermic conditions", "result": 1, "unit": "days"},
      {"measurement": "Average Survival days", "setting": "[2]; [8]", "result": 1, "unit": "days"},
      {"measurement": "Survival days", "setting": "[2]; [8]", "result": 1, "unit": "days"},
      {"measurement": "Average Survival days", "setting": "[2]; 1 g/kg, normothermic conditions", "result": 1.5, "unit": "days"},
      {"measurement": "Average Survival days", "setting": "[2]; 1.5 g/kg, normothermic conditions", "result": 3, "unit": "days"},
      {"measurement": "Average Survival days", "setting": "[2]; 2 g/kg, normothermic conditions", "result": 3.33, "unit": "days"},
      {"measurement": "Average Survival days", "setting": "[2]; 2.5 g/kg, normothermic conditions", "result": 1, "unit": "days"},
      {"measurement": "Average Survival days", "setting": "[2]; 3 g/kg, normothermic conditions", "result": 1, "unit": "days"},
      {"measurement": "effect on mortality / neurological deficit score", "setting": "[2]", "result": "mild reduction in mortality"}
    ]},
    {"molecule": "CC(=O)N[C@@H](CS)C(=O)O", "note": "[N-Acetylcysteine, (2R)-2-acetamido-3-sulfanylpropanoic acid]", "values": [
      {"measurement": "NDS day 3, median neurological deficit score", "setting": "[1]; 150 mg/kg", "result": "(38)"},
      {"measurement": "NDS day 3, median neurological deficit score", "setting": "[1]; 300 mg/kg", "result": "NA, (40)"},
      {"measurement": "NDS day 3", "setting": "[1]; 300 mg/kg, individual rats", "result": "NA, 40"},
      {"measurement": "Average Survival days", "setting": "[2]; 50 mg/kg, normothermic conditions", "result": 1.5, "unit": "days"},
      {"measurement": "Average Survival days", "setting": "[2]; 150 mg/kg, normothermic conditions", "result": 3, "unit": "days"},
      {"measurement": "Average Survival days", "setting": "[2]; 300 mg/kg, normothermic conditions", "result": 2.5, "unit": "days"}
    ]}
  ]
}
